# Tested on: pERK in HCT-116 cells (KRAS G13D)
# Experiment: Phospho-ERK inhibition (AlphaLISA SureFire Ultra p-ERK 1/2), HCT116
# Type: cell-based, human
# Details: HCT116 cells, Table 5
# Experimental: All cancer cell lines (A375, A101D, A2058, RKO, HT29 SK-MEL 30, IPC298, HepG2, HCT-116, Lovo, SWV620, SW480, NCI-H358, NCI-H2122, Calu-6, NCIH2087, NCIH1755, NCIH1666 and Mewo) were obtained from ATCC and cultured in RPMI-1640 medium (Gibco) supplemented with 5% heat inactivated fetal bovine serum (FBS, Wisent) at 37° C. under 5% CO2. Cells were maintained in T175 flasks (Greiner). They were passaged by removing the culture medium, washing once in 10 mL of room temperature Phosphate Buffered Saline (PBS; Wisent) and incubating at 37° C. with 2 mL of 0.05% Trypsin (Thermo-Fisher). Trypsin was then inactivated by adding complete growth medium and the cells were then replated in a T175 culture dish at the appropriate dilution. All cell lines were routinely tested for mycoplasma contamination. Tissue type and mutational status of each cell line can be found in Table B.
# AlphaLISA® SureFire® Ultra™ p-ERK 1/2 (Thr202/Tyr204) analysis was conducted on cells plated in 100 μL of complete RPMI-1640 growth medium in 96-well flat-bottomed transparent dishes (Costar) at a density indicated in Table C. Cells were maintained overnight at 37° C. under 5% CO2 before treatment with compounds' dilution series for one hour. The cell density in cells/cm^2 corresponds to cell number divided by the area of one well of a 96-well plate ([…]).
# In a dilution series 100 μL/well of test substance dilution prepared in complete RPMI-1640 growth media was added to the cells. The dilution series is selected so that ten concentrations cover a range from 10 μM to 0.33 nM. If necessary the initial concentration of 10 μM is increased to 100 μM or lowered to 1 μM (as in the case of A375 and H1666 cells, which are generally more sensitive to the compounds) and further dilution is carried out accordingly. The final concentration of DMSO in the assay is set at 0.5%.
# After treatment, media was removed and cells were lysed in 50 μL of 1× AlphaScreen Ultra Lysis Buffer (Perkin Elmer). The AlphaLISA® SureFire® Ultra™ p-ERK 1/2 (Thr202/Tyr2O4) (PerkinElmer) reactions were performed with 5 μL of cell lysate according to the manufacturer's specifications in 384-well proxyplates (Perkin Elmer) followed by overnight incubation of the reactions at room temperature in a humidified chamber. After completion of the reactions, the signals were recorded on an EnVision plate reader (Perkin Elmer) using built in AlphaLISA® settings.
# The effect of each compound dilution on the pERK signal was expressed in % inhibition and calculated as follows. An internal 100% inhibition control ([…] trametinib, cat #HY-10999; MedChem Express; CAS #871700-17-3) was included in each plate and used as a measure of pERK background. First, the value obtained for trametinib was subtracted from each data point. The average of DMSO (vehicle) controls (set as 0% inhibition) was established and used to calculate % inhibition: % inhibition=100*(1-((pERK signalcompound)/(pERK signalDMSO)))
# The ability of each compound to inhibit pERK signal was expressed as an IC50 value obtained by plotting the inhibition values for each data point of a dilution series and fitting the obtained curves using a log(agonist) versus response-variable slope (four parameters) function using GraphPadPrism (V7.0) or Dotmatics Screening Ultra platform.
# When present, paradoxical pERK induction is inferred from the negative % inhibition values observed in the pERK IC50 curves of a compound.
row,IC50 [nM],Compound
1,1000 to 10000,Cc1c(Cl)cccc1S(=O)(=O)Nc1cccc(Nc2ncnc3ccc(-n4nc(C(=O)N5CCOCC5)c5ccccc54)nc23)c1F [Example 241]

# Same assay, conditions: HCT116 cells; Ymin in brackets
row,Compound,HCT116 pERK Ymin % [%]
1,O=S(=O)(Nc1ccc(F)c(Nc2ncnc3ccc(-n4cc(CO)c5ccccc54)nc23)c1F)c1ccccc1Cl [Ex 88],−6
2,O=S(=O)(Nc1ccc(F)c(Nc2ncnc3ccc(-n4cnc5c(CN6CCC6)cccc54)nc23)c1F)c1ccccc1Cl [Ex 218],−6
3,O=S(=O)(Nc1ccc(F)c(Nc2ncnc3ccc(-n4cnc5c(CN6CCOCC6)cccc54)nc23)c1F)c1ccccc1Cl [Ex 220],−1.7
4,CCN(C)Cc1cccc2c1ncn2-c1ccc2ncnc(Nc3c(F)ccc(NS(=O)(=O)c4ccccc4Cl)c3F)c2n1 [Ex 221],−5
5,O=S(=O)(Nc1ccc(F)c(Nc2ncnc3ccc(-n4cnc5c(CN6CCCCC6)cccc54)nc23)c1F)c1ccccc1Cl [Ex 228],2.0
6,O=S(=O)(Nc1ccc(F)c(Nc2ncnc3ccc(-n4cnc5c(CN6CCNCC6)cccc54)nc23)c1F)c1ccccc1Cl [Ex 230],−3
7,O=S(=O)(Nc1ccc(F)c(Nc2ncnc3ccc(-n4cnc5c(CN6CC(F)C6)cccc54)nc23)c1F)c1ccccc1Cl [Example 227],−1.9
8,CC(c1cccc2c1ncn2-c1ccc2ncnc(Nc3c(F)ccc(NS(=O)(=O)c4ccccc4Cl)c3F)c2n1)N1CCOCC1 (stereo not shown) [Example 237],2.8
9,CCCNc1cccc2c1ncn2-c1ccc2ncnc(Nc3c(F)ccc(NS(=O)(=O)c4cccc(Cl)c4Cl)c3F)c2n1 [Example 242],−7.4

# Same assay, conditions: HCT116 cells; class symbol
row,IC50 [nM],Compound
1,1000 to 10000,Cc1cc([N+](=O)[O-])ccc1S(=O)(=O)Nc1ccc(F)c(Nc2ncnc3ccc(-n4cnc5c(N)cccc54)nc23)c1F [Ex 368]
2,< 500,CN(CCc1ccccn1)C(=O)c1nn(-c2ccc3ncnc(Nc4c(F)ccc(NS(=O)(=O)c5cccc(Cl)c5Cl)c4F)c3n2)c2ccccc12 [Ex 370]
3,500 to 1000,O=S(=O)(Nc1ccc(F)c(Nc2ncnc3ccc(-n4cc(S(=O)(=O)N5CCN(c6ccccn6)CC5)c5ccccc54)nc23)c1F)c1cccc(Cl)c1Cl [Ex 377]
4,< 500,O=S(=O)(Nc1ccc(F)c(Nc2ncnc3ccc(-n4cc(S(=O)(=O)N5CCN(CCOCCO)CC5)c5ccccc54)nc23)c1F)c1cccc(Cl)c1Cl [Ex 378]
5,1000 to 10000,Cc1c(F)cccc1S(=O)(=O)Nc1ccc(F)c(Nc2ncnc3ccc(-n4cnc(CO)c4)nc23)c1F [Ex 379]
6,1000 to 10000,O=S(=O)(Nc1ccc(F)c(Nc2ncnc3ccc(-n4cc(S(=O)(=O)N5CCN(C6CCCCC6)CC5)c5ccccc54)nc23)c1F)c1cccc(Cl)c1Cl [Ex 380]
7,< 500,CS(=O)(=O)c1cn(-c2ccc3ncnc(Nc4c(F)ccc(NS(=O)(=O)c5cccc(Cl)c5Cl)c4F)c3n2)c2ccccc12 [Ex 381]
8,< 500,CN(C)C1CCN(S(=O)(=O)c2cn(-c3ccc4ncnc(Nc5c(F)ccc(NS(=O)(=O)c6cccc(Cl)c6Cl)c5F)c4n3)c3ccccc23)CC1 [Ex 387]
9,< 500,CCN1CCN(S(=O)(=O)c2cn(-c3ccc4ncnc(Nc5c(F)ccc(NS(=O)(=O)c6cccc(Cl)c6Cl)c5F)c4n3)c3ccccc23)CC1 [Ex 388]
10,< 500,O=S(=O)(Nc1ccc(F)c(Nc2ncnc3ccc(-n4cc(S(=O)(=O)N5CCN(CCO)CC5)c5ccccc54)nc23)c1F)c1cccc(Cl)c1Cl [Ex 389]
11,< 500,Cc1c(F)cccc1S(=O)(=O)Nc1ccc(F)c(Nc2ncnc3ccc(-n4cc(S(=O)(=O)N5CCC(N(C)C)CC5)c5ccccc54)nc23)c1F [Ex 395]
12,< 500,CCN1CCN(S(=O)(=O)c2cn(-c3ccc4ncnc(Nc5c(F)ccc(NS(=O)(=O)c6cccc(F)c6C)c5F)c4n3)c3ccccc23)CC1 [Ex 396]
13,< 500,Cc1c(F)cccc1S(=O)(=O)Nc1ccc(F)c(Nc2ncnc3ccc(-n4cc(S(=O)(=O)N5CCN(CCO)CC5)c5ccccc54)nc23)c1F [Ex 397]
14,< 500,CN1CCCN(S(=O)(=O)c2cn(-c3ccc4ncnc(Nc5c(F)ccc(NS(=O)(=O)c6cccc(Cl)c6Cl)c5F)c4n3)c3ccccc23)CC1 [Ex 436]
15,500 to 1000,O=S(=O)(CC1CCCO1)c1cn(-c2ccc3ncnc(Nc4c(F)ccc(NS(=O)(=O)c5cccc(Cl)c5Cl)c4F)c3n2)c2ccccc12 (stereo not shown) [Ex 441]
16,< 500,O=S(=O)(CC1CCOCC1)c1cn(-c2ccc3ncnc(Nc4c(F)ccc(NS(=O)(=O)c5cccc(Cl)c5Cl)c4F)c3n2)c2ccccc12 [Ex 442]

row,IC50 [nM],Compound
1,< 500,COc1cccc2c1ncn2-c1ccc2ncnc(Nc3c(F)ccc(NS(=O)(=O)c4cccc(Cl)c4Cl)c3F)c2n1 [Ex 449]
2,< 500,O=S(=O)(Nc1ccc(F)c(Nc2ncnc3ccc(-n4cc(S(=O)(=O)N5CC6COCC6C5)c5ccccc54)nc23)c1F)c1cccc(Cl)c1Cl (stereo not shown) [Ex 451]
3,< 500,CC(C)(O)CCNS(=O)(=O)c1cn(-c2ccc3ncnc(Nc4c(F)ccc(NS(=O)(=O)c5cccc(Cl)c5Cl)c4F)c3n2)c2ccccc12 [Ex 453]
4,< 500,O=S(=O)(Nc1ccc(F)c(Nc2ncnc3ccc(-n4cc(S(=O)(=O)N5CC(O)C5)c5ccccc54)nc23)c1F)c1cccc(Cl)c1Cl [Ex 455]
5,< 500,CC1(O)CCN(S(=O)(=O)c2cn(-c3ccc4ncnc(Nc5c(F)ccc(NS(=O)(=O)c6cccc(Cl)c6Cl)c5F)c4n3)c3ccccc23)CC1 [Ex 458]
6,< 500,C[C@@H]1CN(C)C[C@H](C)N1S(=O)(=O)c1cn(-c2ccc3ncnc(Nc4c(F)ccc(NS(=O)(=O)c5cccc(Cl)c5Cl)c4F)c3n2)c2ccccc12 [Ex 459]
7,< 500,O=S(=O)(Nc1ccc(F)c(Nc2ncnc3ccc(-n4cnc5c(Cl)cccc54)nc23)c1F)c1cccc(Cl)c1Cl [Ex 462]
8,500 to 1000,O=S(=O)(Nc1ccc(F)c(Nc2ncnc3ccc(-n4cnc5c4CCCC5)nc23)c1F)c1cccc(Cl)c1Cl [Ex 463]
9,1000 to 10000,CC(=O)c1cn(-c2ccc3ncnc(Nc4c(F)ccc(NS(=O)(=O)c5cccc(Cl)c5Cl)c4F)c3n2)c2ccccc12 [Ex 464]
10,1000 to 10000,CCC(=O)c1cn(-c2ccc3ncnc(Nc4c(F)ccc(NS(=O)(=O)c5cccc(Cl)c5Cl)c4F)c3n2)c2ccccc12 [Ex 471]
11,1000 to 10000,Cc1c(F)cccc1S(=O)(=O)Nc1ccc(F)c(Nc2ncnc3ccc(-n4cnc5c(C#N)cccc54)nc23)c1F [Example 329]
12,< 500,Cc1c(F)cccc1S(=O)(=O)Nc1ccc(F)c(Nc2ncnc3ccc(-n4ccc(C(=O)N(C)Cc5ccncc5)n4)nc23)c1F [Example 334]
13,< 500,Cc1c(F)cccc1S(=O)(=O)Nc1ccc(F)c(Nc2ncnc3ccc(-n4cnc(CCC#N)c4)nc23)c1F [Example 347]
14,< 500,Nc1nccc2c1ncn2-c1ccc2ncnc(Nc3c(F)ccc(NS(=O)(=O)c4cccc(Cl)c4Cl)c3F)c2n1 [Example 348]
15,< 500,Cc1c(F)cccc1S(=O)(=O)Nc1ccc(F)c(Nc2ncnc3ccc(-n4cnc5c(NCCO)cccc54)nc23)c1F [Example 350]
16,< 500,Cc1c(F)cccc1S(=O)(=O)Nc1ccc(F)c(Nc2ncnc3ccc(-n4cnc5c(N(CCO)CCO)cccc54)nc23)c1F [Example 351]

row,Compound,IC50 [nM]
1,Cc1c(F)cccc1S(=O)(=O)Nc1ccc(F)c(Nc2ncnc3ccc(-n4ncc5c4CN(CCO)CC5)nc23)c1F [Example 339],< 500
2,Cc1c(F)cccc1S(=O)(=O)Nc1ccc(F)c(Nc2ncnc3ccc(-n4cc5c(n4)CCCN5CCO)nc23)c1F [Example 340],< 500
3,Cc1c(F)cccc1S(=O)(=O)Nc1ccc(F)c(Nc2ncnc3ccc(-n4cc5c(n4)CCCN5C)nc23)c1F [Example 356],< 500

# Same assay, conditions: HCT116 cells; class symbol before the bracket
row,IC50 [nM],Compound
1,1000 to 10000,O=S(=O)(Nc1ccc(F)c(Nc2ncnc3ccc(-n4cc(CO)c5ccccc54)nc23)c1F)c1ccccc1Cl [Ex 88]
2,500 to 1000,O=S(=O)(Nc1ccc(F)c(Nc2ncnc3ccc(-n4cnc5c(CN6CCC6)cccc54)nc23)c1F)c1ccccc1Cl [Ex 218]
3,500 to 1000,O=S(=O)(Nc1ccc(F)c(Nc2ncnc3ccc(-n4cnc5c(CN6CCOCC6)cccc54)nc23)c1F)c1ccccc1Cl [Ex 220]
4,500 to 1000,CCN(C)Cc1cccc2c1ncn2-c1ccc2ncnc(Nc3c(F)ccc(NS(=O)(=O)c4ccccc4Cl)c3F)c2n1 [Ex 221]
5,500 to 1000,O=S(=O)(Nc1ccc(F)c(Nc2ncnc3ccc(-n4cnc5c(CN6CCCCC6)cccc54)nc23)c1F)c1ccccc1Cl [Ex 228]
6,1000 to 10000,O=S(=O)(Nc1ccc(F)c(Nc2ncnc3ccc(-n4cnc5c(CN6CCNCC6)cccc54)nc23)c1F)c1ccccc1Cl [Ex 230]
7,500 to 1000,O=S(=O)(Nc1ccc(F)c(Nc2ncnc3ccc(-n4cnc5c(CN6CC(F)C6)cccc54)nc23)c1F)c1ccccc1Cl [Example 227]
8,500 to 1000,CC(c1cccc2c1ncn2-c1ccc2ncnc(Nc3c(F)ccc(NS(=O)(=O)c4ccccc4Cl)c3F)c2n1)N1CCOCC1 (stereo not shown) [Example 237]
9,1000 to 10000,CCCNc1cccc2c1ncn2-c1ccc2ncnc(Nc3c(F)ccc(NS(=O)(=O)c4cccc(Cl)c4Cl)c3F)c2n1 [Example 242]

# Same assay, conditions: lowest value of the curve, HCT116, Table 5
row,Compound,HCT116 pERK Ymin % [%]
1,Cc1c(Cl)cccc1S(=O)(=O)Nc1cccc(Nc2ncnc3ccc(-n4nc(C(=O)N5CCOCC5)c5ccccc54)nc23)c1F [Example 241],−0.9
